Results from US11377442B2, “Small molecule agonists and antagonists of NR2F6 activity” (ZANDER THERAPEUTICS, INC., priority 2016, dated 2022).
Where two headings read alike, the source gives them in different places.

What was measured:
Type in all cases: cell-based
NR2F6 = biological target: T1, NR2F6 (Homo sapiens, UniProt P10588); test: NR2F6 agonist screening, Firefly signal cmpd/DMSO
T1 construct: expressed in transfected cells; also transient transfection
T1 sequence (P10588 1-404): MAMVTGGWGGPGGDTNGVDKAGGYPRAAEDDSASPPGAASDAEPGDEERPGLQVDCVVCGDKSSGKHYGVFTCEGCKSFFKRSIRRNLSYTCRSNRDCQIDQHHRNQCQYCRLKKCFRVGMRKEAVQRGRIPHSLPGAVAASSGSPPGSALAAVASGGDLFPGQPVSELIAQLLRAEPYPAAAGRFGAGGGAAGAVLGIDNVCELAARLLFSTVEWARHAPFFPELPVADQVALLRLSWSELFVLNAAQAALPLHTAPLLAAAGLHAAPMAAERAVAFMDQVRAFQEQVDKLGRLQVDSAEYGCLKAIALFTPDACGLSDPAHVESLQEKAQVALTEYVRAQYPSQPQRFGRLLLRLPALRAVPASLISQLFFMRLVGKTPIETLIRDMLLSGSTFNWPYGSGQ

Renilla = Renilla signal in NR2F6 agonist screening, cmpd/DMSO; conditions: Renilla, F4
HEK293 pGL4 = test: Firefly_pGL signal, cmpd/DMSO (pGL4 control cells); conditions: Homo sapiens
NR2F6 LBD = biological target: T2, NR2F6 LBD (Homo sapiens, UniProt P10588); test: NR2F6 LBD transient transfection; conditions: LBD
T2 construct: expressed in transfected cells
T2 sequence (P10588 165-393 limits assumed): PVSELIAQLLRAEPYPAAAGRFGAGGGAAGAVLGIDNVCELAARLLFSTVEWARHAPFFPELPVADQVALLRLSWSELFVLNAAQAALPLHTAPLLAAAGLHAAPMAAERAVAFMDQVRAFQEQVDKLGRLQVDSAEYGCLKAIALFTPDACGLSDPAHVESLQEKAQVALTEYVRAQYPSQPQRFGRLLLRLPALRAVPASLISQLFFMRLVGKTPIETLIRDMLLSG
Experimental: FIGS. 27A and 27B show NR2F6 and LBD transient transfection, respectively, for Compound D28. Higher concentrations were excluded due to lower signal (tox effect). FIGS. 27C and 27D show NR2F6 and LBD transient transfection at different concentrations for different compounds. 9 compounds were tested on LBD transfected cells (40, 10, 2 and 0.5 μM, 4 replicates). FIGS. 27E and 27F show toxicity of Compound D28. 9 compounds were tested for cytotoxicity on LBD transfected cells (40, 10, 2 and 0.5 μM, 4 replicates). […] Cytotoxicity normalized to DMSO is shown in FIG. 27F (0% cytotoxicity corresponds to DMSO signal, 100%—zero signal).
FIGS. 34A and 34B show NR2F6 LBD transient transfection for Compound E21. 9 compounds were tested on LBD transfected cells (40, 10, 2 and 0.5 μM, 4 replicates). FIGS. 34C and 34D show NR2F6 and LBD transient transfection at different concentrations for different compounds. 9 compounds were tested on LBD transfected cells (40, 10, 2 and 0.5 μM, 4 replicates). […] Cytotoxicity normalized to DMSO is shown in FIG. 34D (0% cytotoxicity corresponds to DMSO signal, 100%—zero signal). All compounds were tested at 5, 10, 25 and 50 uM in duplicates. Dog PBMC (1×10^6 cells/mL) were activated by 10 ng/mL PMA+500 ng/mL ionomycin. Data were normalized to controls with (100%)/without (0%) PMA+ionomycin activation.
FIGS. 39A and 39B show NR2F6 LBD transient transfection for Compound F1. 9 compounds were tested on LBD transfected cells (40, 10, 2 and 0.5 μM, 4 replicates). FIGS. 39C and 39D show toxicity of NR2F6 LBD transient transfection. 9 compounds were tested for cytotoxicity on LBD transfected cells (40, 10, 2 and 0.5 μM, 4 replicates). Tox effect causes lower signal compared to DMSO. Cytotoxicity normalized to DMSO is shown in FIG. 39D (0% cytotoxicity corresponds to DMSO signal, 100%—zero signal).

[1] = read-out: Renilla, F4, cmpd/DMSO (mean)
[2] = 1% FBS, read-out: Renilla, F4, 1% FBS, cmpd/DMSO (mean)
[3] = 10% FBS, read-out: Renilla, F4, 10% FBS, cmpd/DMSO (mean)
[4] = HEK293, 0.5 uM, pGL4, read-out: Firefly pGL4, cmpd/DMSO (mean)
[5] = HEK293, 2 uM, pGL4, read-out: Firefly pGL4, cmpd/DMSO (mean)
[6] = HEK293, 10 uM, pGL4, read-out: Firefly pGL4, cmpd/DMSO (mean)
[7] = HEK293, 40 uM, pGL4, read-out: Firefly pGL4, cmpd/DMSO (mean)
[8] = HEK293, pGL4, 1% FBS, 0.5 uM, read-out: Firefly, pGL4, 1% FBS, cmpd/DMSO (mean)
[9] = HEK293, pGL4, 1% FBS, 2 uM, read-out: Firefly, pGL4, 1% FBS, cmpd/DMSO (mean)
[10] = HEK293, pGL4, 1% FBS, 10 uM, read-out: Firefly, pGL4, 1% FBS, cmpd/DMSO (mean)
[11] = HEK293, pGL4, 1% FBS, 40 uM, read-out: Firefly, pGL4, 1% FBS, cmpd/DMSO (mean)
[12] = HEK293, pGL4, 10% FBS, 0.5 uM, read-out: Firefly, pGL4, 10% FBS, cmpd/DMSO (mean)
[13] = HEK293, pGL4, 10% FBS, 2 uM, read-out: Firefly, pGL4, 10% FBS, cmpd/DMSO (mean)
[14] = HEK293, pGL4, 10% FBS, 10 uM, read-out: Firefly, pGL4, 10% FBS, cmpd/DMSO (mean)
[15] = HEK293, pGL4, 10% FBS, 40 uM, read-out: Firefly, pGL4, 10% FBS, cmpd/DMSO (mean)

Q: What does the source list for `COCCN[C@H]1CS(=O)(=O)C[C@@H]1S(=O)(=O)c1cccs1` [Compound D107]?
A: Firefly F4, cmpd/DMSO (mean) (NR2F6; 0.5 uM): 1.3; Firefly F4, cmpd/DMSO (mean) (NR2F6; 2 uM): 1.6; Firefly F4, cmpd/DMSO (mean) (NR2F6; 10 uM): 2.2; Firefly F4, cmpd/DMSO (mean) (NR2F6; 40 uM): 4.0; F4, Firefly/Renilla for S/B(F4) > 3 (NR2F6; 1% FBS, 40 uM): 2.2; Firefly, F4/pGL4 for S/B(F4) > 3 (NR2F6; 1% FBS, 40 uM): 2.6; F4, Firefly/Renilla for S/B(F4) > 3 (NR2F6; 10% FBS, 40 uM): 2.9; Firefly, F4/pGL4 for S/B(F4) > 3 (NR2F6; 10% FBS, 40 uM): 2.7; Firefly, F4, 1% FBS, cmpd/DMSO (mean) (NR2F6; 1% FBS, 0.5 uM): 1.5; Firefly, F4, 1% FBS, cmpd/DMSO (mean) (NR2F6; 1% FBS, 2 uM): 0.8; Firefly, F4, 1% FBS, cmpd/DMSO (mean) (NR2F6; 1% FBS, 10 uM): 1.4; Firefly, F4, 1% FBS, cmpd/DMSO (mean) (NR2F6; 1% FBS, 40 uM): 3.8; Firefly, F4, 10% FBS, cmpd/DMSO (mean) (NR2F6; 10% FBS, 0.5 uM): 0.8; Firefly, F4, 10% FBS, cmpd/DMSO (mean) (NR2F6; 10% FBS, 2 uM): 1.4; Firefly, F4, 10% FBS, cmpd/DMSO (mean) (NR2F6; 10% FBS, 10 uM): 1.5; Firefly, F4, 10% FBS, cmpd/DMSO (mean) (NR2F6; 10% FBS, 40 uM): 6.1; fold induction at 0.5 µM (Renilla; [1]): 1.1; fold induction at 2 µM (Renilla; [1]): 1; fold induction at 10 µM (Renilla; [1]): 1.2; fold induction at 40 µM (Renilla; [1]): 1.5; fold induction at 0.5 µM (Renilla; [2]): 0.9; fold induction at 2 µM (Renilla; [2]): 1.2; fold induction at 10 µM (Renilla; [2]): 1.3; fold induction at 40 µM (Renilla; [2]): 1.8; fold induction at 0.5 µM (Renilla; [3]): 1; fold induction at 2 µM (Renilla; [3]): 1; fold induction at 10 µM (Renilla; [3]): 1.3; fold induction at 40 µM (Renilla; [3]): 2.1; fold induction at 0.5 µM (HEK293 pGL4; [4]): 1.2; fold induction at 2 µM (HEK293 pGL4; [5]): 1.5; fold induction at 10 µM (HEK293 pGL4; [6]): 2; fold induction at 40 µM (HEK293 pGL4; [7]): 2.5; fold induction at 0.5 µM (HEK293 pGL4; [8]): 1.3; fold induction at 2 µM (HEK293 pGL4; [9]): 1.4; fold induction at 10 µM (HEK293 pGL4; [10]): 1.8; fold induction at 40 µM (HEK293 pGL4; [11]): 1.4; fold induction at 0.5 µM (HEK293 pGL4; [12]): 1.1; fold induction at 2 µM (HEK293 pGL4; [13]): 1.3; fold induction at 10 µM (HEK293 pGL4; [14]): 1.7; fold induction at 40 µM (HEK293 pGL4; [15]): 2.3; Firefly LBD, cmpd/DMSO (mean) (NR2F6 LBD; 0.5 uM): 0.9; Firefly LBD, cmpd/DMSO (mean) (NR2F6 LBD; 2 uM): 1.1; Firefly LBD, cmpd/DMSO (mean) (NR2F6 LBD; 10 uM): 2.2; Firefly LBD, cmpd/DMSO (mean) (NR2F6 LBD; 40 uM): 2.2

Q: `O=S1(=O)C[C@H](NCc2ccncc2)[C@@H](S(=O)(=O)c2cccs2)C1` [Compound D108] was tested. Which “Firefly F4, cmpd/DMSO (mean)” value (NR2F6; 0.5 uM) did it give?
A: 1.0

Q: And the “Firefly F4, cmpd/DMSO (mean)” value (NR2F6; 2 uM)?
A: 1.3

Q: What about the “Firefly F4, cmpd/DMSO (mean)” value (NR2F6; 10 uM) of the same compound?
A: 1.3

Q: And the “Firefly F4, cmpd/DMSO (mean)” value (NR2F6; 40 uM)?
A: 1.9

Q: What about the “Firefly, F4, 1% FBS, cmpd/DMSO (mean)” value (NR2F6; 1% FBS, 0.5 uM) of the same compound?
A: 1.2

Q: And the “Firefly, F4, 1% FBS, cmpd/DMSO (mean)” value (NR2F6; 1% FBS, 2 uM)?
A: 1.1

Q: What about the “Firefly, F4, 1% FBS, cmpd/DMSO (mean)” value (NR2F6; 1% FBS, 10 uM) of the same compound?
A: 1.1

Q: What about the “Firefly, F4, 1% FBS, cmpd/DMSO (mean)” value (NR2F6; 1% FBS, 40 uM) of the same compound?
A: 1.8

Q: And the “Firefly, F4, 10% FBS, cmpd/DMSO (mean)” value (NR2F6; 10% FBS, 0.5 uM)?
A: 1.2

Q: What about the “Firefly, F4, 10% FBS, cmpd/DMSO (mean)” value (NR2F6; 10% FBS, 2 uM) of the same compound?
A: 1.0

Q: What about the “Firefly, F4, 10% FBS, cmpd/DMSO (mean)” value (NR2F6; 10% FBS, 10 uM) of the same compound?
A: 1.1

Q: And the “Firefly, F4, 10% FBS, cmpd/DMSO (mean)” value (NR2F6; 10% FBS, 40 uM)?
A: 2.2

Q: And the fold induction at 0.5 µM (Renilla; [1])?
A: 1

Q: What about the fold induction at 2 µM (Renilla; [1]) of the same compound?
A: 1

Q: What about the fold induction at 10 µM (Renilla; [1]) of the same compound?
A: 1.1

Q: What about the fold induction at 40 µM (Renilla; [1]) of the same compound?
A: 1.2

Q: And the fold induction at 0.5 µM (Renilla; [2])?
A: 1

Q: What about the fold induction at 2 µM (Renilla; [2]) of the same compound?
A: 1.2

Q: What about the fold induction at 10 µM (Renilla; [2]) of the same compound?
A: 1.1

Q: What about the fold induction at 40 µM (Renilla; [2]) of the same compound?
A: 1.4

Q: What about the fold induction at 0.5 µM (Renilla; [3]) of the same compound?
A: 1

Q: And the fold induction at 2 µM (Renilla; [3])?
A: 0.9

Q: What about the fold induction at 10 µM (Renilla; [3]) of the same compound?
A: 1

Q: What about the fold induction at 40 µM (Renilla; [3]) of the same compound?
A: 1.4

Q: What about the fold induction at 0.5 µM (HEK293 pGL4; [4]) of the same compound?
A: 0.9

Q: What about the fold induction at 2 µM (HEK293 pGL4; [5]) of the same compound?
A: 1

Q: What about the fold induction at 10 µM (HEK293 pGL4; [6]) of the same compound?
A: 1.2

Q: What about the fold induction at 40 µM (HEK293 pGL4; [7]) of the same compound?
A: 1.5

Q: And the fold induction at 0.5 µM (HEK293 pGL4; [8])?
A: 1.5

Q: What about the fold induction at 2 µM (HEK293 pGL4; [9]) of the same compound?
A: 1.2

Q: And the fold induction at 10 µM (HEK293 pGL4; [10])?
A: 1.2

Q: And the fold induction at 40 µM (HEK293 pGL4; [11])?
A: 1.1

Q: What about the fold induction at 0.5 µM (HEK293 pGL4; [12]) of the same compound?
A: 1.1

Q: And the fold induction at 2 µM (HEK293 pGL4; [13])?
A: 1.1

Q: What about the fold induction at 10 µM (HEK293 pGL4; [14]) of the same compound?
A: 1.1

Q: What about the fold induction at 40 µM (HEK293 pGL4; [15]) of the same compound?
A: 1.4

Q: And the “Firefly LBD, cmpd/DMSO (mean)” value (NR2F6 LBD; 0.5 uM)?
A: 1.0

Q: And the “Firefly LBD, cmpd/DMSO (mean)” value (NR2F6 LBD; 2 uM)?
A: 1.4

Q: What about the “Firefly LBD, cmpd/DMSO (mean)” value (NR2F6 LBD; 10 uM) of the same compound?
A: 1.3

Q: And the “Firefly LBD, cmpd/DMSO (mean)” value (NR2F6 LBD; 40 uM)?
A: 2.1
